Laboratory results published in US20080161309A1, “Novel Compounds” (priority 2004, published 2008).
pKi: −log10 of the molar value. Structures can show the parent of a compound that is named as a salt.

How the values were obtained:
[1] = biological target: T1, human norepinephrine transporter (hNET) (Homo sapiens, UniProt P23975); assay: hNET receptor binding, [125I]-RTI-55, HEK-293 membranes; conditions: Cheng-Prusoff, read-out: NET Ki
T1 construct: expressed in transfected cells; host or cells: HEK-293, membranes
T1 sequence (P23975 whole entry): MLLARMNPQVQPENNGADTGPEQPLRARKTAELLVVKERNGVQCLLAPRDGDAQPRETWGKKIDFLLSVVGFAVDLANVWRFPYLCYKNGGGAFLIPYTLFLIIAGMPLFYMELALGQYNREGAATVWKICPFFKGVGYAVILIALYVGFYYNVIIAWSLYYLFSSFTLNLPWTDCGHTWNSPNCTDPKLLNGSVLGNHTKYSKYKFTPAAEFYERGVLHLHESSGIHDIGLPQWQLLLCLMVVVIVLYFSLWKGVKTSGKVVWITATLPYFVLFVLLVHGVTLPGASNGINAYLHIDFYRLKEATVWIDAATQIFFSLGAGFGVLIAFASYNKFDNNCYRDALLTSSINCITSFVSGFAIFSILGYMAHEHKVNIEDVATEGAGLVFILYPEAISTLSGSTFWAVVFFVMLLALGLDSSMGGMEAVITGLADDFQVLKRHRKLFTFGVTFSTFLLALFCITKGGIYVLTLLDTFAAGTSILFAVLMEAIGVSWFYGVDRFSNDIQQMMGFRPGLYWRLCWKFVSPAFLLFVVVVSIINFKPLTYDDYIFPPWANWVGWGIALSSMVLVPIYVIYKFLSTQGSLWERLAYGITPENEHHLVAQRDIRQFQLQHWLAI
Description: Cell pastes of HEK-293 cells transfected with a human norepinephrine transporter cDNA were prepared. The cell pastes were resuspended in 400 to 700 ml of Krebs-HEPES assay buffer (25 mM HEPES, 122 mM NaCl, 3 mM KCl, 1.2 mM MgSO4, 1.3 mM CaCl2, and 11 mM glucose, pH 7.4) with a Polytron homogenizer at setting 7 for 30 seconds. Aliquots of membranes (5 mg/ml protein) were stored in liquid nitrogen until used.
The binding assay was set up in Beckman deep-well polypropylene plates with a total volume of 250 μl containing: drug (10^−5M to 10^−12M), cell membranes, and […] [^125I]-RTI-55 (Perkin Elmer, NEX-272; specific activity 2200 Ci/mmol). The reaction was incubated by gentle agitation for 90 minutes at room temperature and was terminated by filtration through Whatman GF/C filter plates using a Brandel 96-well plate harvester. Scintillation fluid (100 μl) was added to each well, and bound [^125I]-RTI-55 was determined using a Wallac Trilux Beta Plate Counter. Test compounds were run in duplicate, and specific binding was defined as the difference between binding in the presence and absence of 10 μM desipramine.
Excel and GraphPad Prism software were used for data calculation and analysis. IC50 values were converted to Ki values using the Cheng-Prusoff equation. The Ki values (nM) for the hNET are reported below in Table 1.

[2] = biological target: T2, human serotonin transporter (hSERT) (Homo sapiens, UniProt P31645); assay: hSERT receptor binding, [125I]-RTI-55, HEK-293 membranes; conditions: [125I]-RTI-55, HEK-293 membranes, Cheng-Prusoff; read-out: SERT Ki
T2 construct: expressed in transfected cells; host or cells: HEK-293, membranes
T2 sequence (P31645 whole entry): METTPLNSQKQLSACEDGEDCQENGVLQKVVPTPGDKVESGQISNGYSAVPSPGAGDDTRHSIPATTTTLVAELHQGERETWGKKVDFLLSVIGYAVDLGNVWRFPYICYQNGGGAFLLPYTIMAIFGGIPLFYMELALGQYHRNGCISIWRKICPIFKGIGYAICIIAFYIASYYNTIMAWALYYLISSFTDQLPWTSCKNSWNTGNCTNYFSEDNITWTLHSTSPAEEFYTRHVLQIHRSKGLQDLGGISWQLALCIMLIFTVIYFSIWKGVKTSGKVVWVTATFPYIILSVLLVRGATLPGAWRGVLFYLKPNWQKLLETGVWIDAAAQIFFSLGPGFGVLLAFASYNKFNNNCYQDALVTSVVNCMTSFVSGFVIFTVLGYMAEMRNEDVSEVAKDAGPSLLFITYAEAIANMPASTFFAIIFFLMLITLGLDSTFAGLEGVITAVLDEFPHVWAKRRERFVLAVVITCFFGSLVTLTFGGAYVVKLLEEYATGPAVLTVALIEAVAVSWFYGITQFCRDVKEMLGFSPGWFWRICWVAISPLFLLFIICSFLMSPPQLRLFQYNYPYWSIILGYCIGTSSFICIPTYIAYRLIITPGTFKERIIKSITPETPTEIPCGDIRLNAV
Description: Cell pastes of HEK-293 cells transfected with a human serotonin transporter cDNA were prepared. […] Aliquots of membranes (−2.5 mg/ml protein) were stored in liquid nitrogen until used.
The reaction was incubated and gently agitated for 90 minutes at room temperature, and terminated by removal of assay volume. […] Test compounds were run in duplicate, and specific binding was defined as the difference between binding in the presence and absence of 10 μM citalopram. Excel and GraphPad Prism software were used for data calculation and analysis. IC50 values were converted to Ki values using the Cheng-Prusoff equation.

| pKi [1] | pKi [2] | Compound |
| --- | --- | --- |
| 7.86 | 6.67 | COc1ccc(O[C@@H](c2ccccn2)[C@@H]2CNCCO2)c(Cl)c1 [Example 106, (2S)-2-[(1S)-(2-chloro-4-methoxyphenoxy)(pyridin-2-yl)methyl]morpholine fumarate] |
| 7.37 | 6.87 | COc1ccc(Cl)c(O[C@@H](c2ccccc2)[C@@H]2CNCCO2)c1 [Example 97, (2S)-2-[(1S)-(2-Chloro-5-methoxyphenoxy)phenylmethyl] morpholine fumarate] |
| 8.15 | 7.58 | Clc1cccc(O[C@@H](c2ccccc2)[C@@H]2CNCCO2)c1Cl [Example 81, (2S)-2-[(1S)-(2,3-Dichlorophenoxy)phenylmethyl] morpholine fumarate] |
| 7.96 | 6.41 | Fc1c(F)c(F)c(O[C@@H](c2ccccc2)[C@@H]2CNCCO2)c(F)c1F [Example 85, (2S)-2-[(1S)-(Pentafluorophenyloxy) (phenyl)methyl] morpholine fumarate] |
| 7.89 | 7.00 | COc1cc(Cl)ccc1O[C@@H](c1ccccn1)[C@@H]1CNCCO1 [Example 103, (2S)-2-[(1S)-(4-chloro-2-methoxyphenoxy)(pyridin-2-yl)methyl]morpholine fumarate] |
| 7.59 | 7.33 | COc1ccc(O[C@@H](c2ccccc2)[C@@H]2CNCCO2)c(Cl)c1 [Example 96, (2S)-2-[(1S)-(2-Chloro-4-methoxyphenoxy)phenylmethyl] morpholine fumarate] |
| 7.48 | 7.48 | COc1cc(Cl)ccc1O[C@@H](c1cccc(Cl)c1)[C@@H]1CNCCO1 [Example 100, (2S)-2-[(1S)-(4-Chloro-2-methoxyphenoxy) (3-chloro phenyl)methyl] morpholine fumarate] |
| 7.71 | 7.17 | COc1cc(C)ccc1O[C@@H](c1cccc(Cl)c1)[C@@H]1CNCCO1 [Example 101, (2S)-2-[(1S)-(3-Chlorophenyl) (2-methoxy-4-methyl phenoxy)methyl] morpholine fumarate] |
| 6.64 | 7.57 | COc1c(Cl)c(Cl)cc(Cl)c1O[C@@H](c1ccccc1)[C@@H]1CNCCO1 [Example 91, (2S)-2-[(1S)-Phenyl-(3,4,6-trichloro-2-methoxyphenoxy)methyl] morpholine fumarate] |
| 6.73 | 7.45 | COc1cc(C(F)(F)F)ccc1O[C@@H](c1ccccc1)[C@@H]1CNCCO1 [Example 99, (2S)-2-[(1S)-(2-Methoxy-4-trifluoromethylphenoxy)phenylmethyl] morpholine fumarate] |
| 7.92 | 7.92 | Cc1c(Cl)cccc1O[C@@H](c1ccccc1)[C@@H]1CNCCO1 [Example 82, (2S)-2-[(1S)-(3-Chloro-2-methylphenoxy)phenylmethyl] morpholine fumarate] |
| 6.38 | 6.12 | FC(F)(F)c1ccc(Cl)c(O[C@@H](c2ccccc2)[C@@H]2CNCCO2)c1 [Example 88, (2S)-2-[(1S)-(2-Chloro-5-trifluoromethylphenoxy)phenylmethyl] morpholine fumarate] |
| 8.00 | 6.36 | COc1ccc(Cl)cc1O[C@@H](c1ccccc1)[C@@H]1CNCCO1 [Example 84, (2S)-2-[(1S)-(5-Chloro-2-methoxyphenoxy)phenylmethyl]morpholine fumarate] |
| 7.68 | 6.31 | Fc1cc(Cl)ccc1O[C@@H](c1ccccn1)[C@@H]1CNCCO1 [Example 104, (2S)-2-[(1S)-(4-chloro-2-fluorophenoxy)(pyridin-2-yl)methyl]morpholine fumarate] |

The next lines start with the compound.

| Compound | pKi [1] | pKi [2] |
| --- | --- | --- |
| Fc1cccc([C@H](Oc2ccc(C(F)(F)F)cc2)[C@@H]2CNCCO2)c1 [Example 67, (2S)-2-[(1S)-(3-Fluorophenyl) (4-trifluoromethyl phenoxy)methyl] morpholine hydrochloride] | 6.41 | 7.45 |
| Fc1ccc(O[C@@H](c2ccc(Cl)cc2)[C@@H]2CNCCO2)c(Cl)c1 [Example 72, (2S)-2-[(1S)-(2-Chloro-4-fluorophenoxy) (4-chlorophenyl)methyl] morpholine hydrochloride] | 7.04 | 7.10 |
| COc1ccc(C)cc1O[C@@H](c1cccc(F)c1)[C@@H]1CNCCO1 [Example 51, (2S)-2-[(1S)-(3-Fluorophenyl)-(2-methoxy-5-methylphenoxy)methyl] morpholine hydrochloride] | 7.58 | 5.98 |
| Fc1cccc([C@H](Oc2cccc(F)c2F)[C@@H]2CNCCO2)c1 [Example 39, (2S)-2-[(1S)-(2,3-Difluorophenoxy)(3-fluorophenyl)methyl] morpholine hydrochloride] | 8.42 | 6.85 |
| COc1cc(Cl)ccc1O[C@@H](c1cccc(C)c1)[C@@H]1CNCCO1 [Example 54, (2S)-2-[(1S)-(4-Chloro-2-methoxyphenoxy)-m-tolyl-methyl] morpholine hydrochloride] | 7.62 | 7.38 |
| COc1cc(Br)ccc1O[C@@H](c1ccccc1)[C@@H]1CNCCO1 [Example 94, (2S)-2-[(1S)-(4-Bromo-2-methoxyphenoxy)phenylmethyl] morpholine fumarate] | 7.92 | 7.65 |
| COc1cc(C)ccc1O[C@@H](c1ccccc1)[C@@H]1CNCCO1 [Example 40, (2S)-2-[(1S)-(2-Methoxy-4-methylphenoxy)phenylmethyl] morpholine hydrochloride] | 8.37 | 6.80 |
| COc1cc(Cl)ccc1O[C@@H](c1ccc(Cl)cc1)[C@@H]1CNCCO1 [Example 73, (2S)-2-[(1S)-(4-Chloro-2-methoxyphenoxy) (4-chlorophenyl)methyl] morpholine hydrochloride] | 7.12 | 7.85 |
| Fc1ccc([C@H](Oc2ccc(F)cc2Cl)[C@@H]2CNCCO2)cc1 [Example 74, (2S)-2-[(1S)-(2-Chloro-4-fluorophenoxy) (4-fluorophenyl)methyl] morpholine hydrochloride] | 7.73 | 6.86 |
| CCCc1ccccc1O[C@@H](c1cccc(F)c1)[C@@H]1CNCCO1 [Example 66, (2S)-2-[(1S)-(3-Fluorophenyl) (2-propylphenoxy)methyl] morpholine hydrochloride] | 7.70 | 5.99 |
| COc1cccc([C@H](Oc2ccc(F)cc2Cl)[C@@H]2CNCCO2)c1 [Example 63, (2S)-2-[(1S)-(2-Chloro-4-fluorophenoxy)-(3-methoxyphenyl)methyl] morpholine hydrochloride] | 8.49 | 6.91 |
| Fc1cccc([C@H](Oc2ccc(Cl)cc2F)[C@@H]2CNCCO2)c1 [Example 44, (2S)-2-[(1S)-(4-Chloro-2-fluorophenoxy)(3-fluorophenyl)methyl] morpholine hydrochloride] | 7.48 | 7.13 |
| (2S)-2-[(1S)-Pentachlorophenyloxy phenyl methyl] morpholine fumarate [Example 95] | 6.23 | 7.40 |
| COc1cc(F)ccc1O[C@@H](c1ccc(Cl)cc1)[C@@H]1CNCCO1 [Example 71, (2S)-2-[(1S)-(4-Chloro-phenyl) (4-fluoro-2-methoxyphenoxy)methyl] morpholine hydrochloride] | 7.54 | 7.11 |
| COc1cc(C)ccc1O[C@H](c1ccc(F)cc1)[C@H]1CNCCO1 [Example 43, (2R)-2-[(1R)-(2-Methoxy-4-methylphenoxy)4-Fluorophenyl) methyl] morpholine hydrochloride] | 5.77 | 8.33 |
| COc1cccc([C@H](Oc2cc(F)ccc2Cl)[C@@H]2CNCCO2)c1 [Example 69, (2S)-2-[(1S)-(2-Chloro-5-fluorophenoxy) (3-methoxyphenyl)methyl] morpholine hydrochloride] | 8.10 | 6.16 |
| Cc1ccccc1O[C@@H](c1cccc(F)c1)[C@@H]1CNCCO1 [Example 49, (2S)-2-[(1S)-(3-Fluorophenyl)-o-tolyloxy-methyl] morpholine hydrochloride] | 8.17 | 6.71 |
| Fc1cccc([C@H](Oc2ccc(F)cc2F)[C@@H]2CNCCO2)c1 [Example 64, (2S)-2-[(1S)-(2,4-Difluorophenoxy) (3-fluoro-phenyl)methyl] morpholine hydrochloride] | 7.86 | 6.29 |
| COc1cccc([C@H](Oc2ccc(Cl)cc2OC)[C@@H]2CNCCO2)c1 [Example 61, (2S)-2-[(1S)-(4-Chloro-2-methoxyphenoxy) (3-methoxyphenyl)methyl] morpholine hydrochloride] | 7.70 | 7.42 |
